Blank lines part the entries; values can stand above or below the compound they belong to. Calls of active or inactive are those of the source. No cut-off for these calls is given here.
Columns and labels:
[1] = test system: DU-145; test: Antiproliferative activity against human DU145 cells at 10 uM after 48 hrs by 2-D dish-based WST-assay; format: functional; settings: DU-145, 48 h
[2] = biological target: T1, Alpha-ketoglutarate-dependent dioxygenase alkB homolog 3 (Homo sapiens, UniProt Q96Q83); test: Inhibition of demethylase activity of PCA-1 (unknown origin) using 3-methyl cytosine oligo DNA as substrate after 1 hr by RT-PCR analysis
T1 sequence (Q96Q83 whole entry): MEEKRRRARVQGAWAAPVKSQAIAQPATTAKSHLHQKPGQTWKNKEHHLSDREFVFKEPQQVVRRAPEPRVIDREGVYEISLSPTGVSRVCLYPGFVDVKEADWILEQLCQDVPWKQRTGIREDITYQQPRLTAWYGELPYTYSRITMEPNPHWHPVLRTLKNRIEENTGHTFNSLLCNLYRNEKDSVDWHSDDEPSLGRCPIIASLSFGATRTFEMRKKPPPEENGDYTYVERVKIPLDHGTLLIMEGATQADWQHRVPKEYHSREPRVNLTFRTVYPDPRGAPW

[3] = test system: DU-145; test: Antiproliferative activity against human DU145 cells at 1 uM after 7 days by 3-D agar-based WST-assay; format: functional; settings: DU-145, 168 h
[4] = test system: DU-145; test: Antiproliferative activity against human DU145 cells at 10 uM after 7 days by 3-D agar-based WST-assay; format: functional; settings: DU-145, 168 h
[5] = test system: DU-145; test: Antiproliferative activity against human DU145 cells at 1 uM after 48 hrs by 2-D dish-based WST-assay; format: functional; settings: DU-145, 48 h
[6] = Initial plasma concentration in Sprague-Dawley rat serum at 0.5 mg/kg, iv; format: ADME, organism-based; design: dose 0.5 mg/kg, route intravenous
[7] = AUC (0 to 24 hrs) in Sprague-Dawley rat serum at 0.5 mg/kg, iv; format: ADME, organism-based; design: time < 24 hr, dose 0.5 mg/kg, route intravenous
[8] = AUC (0 to 24 hrs) in Sprague-Dawley rat serum at 32 mg/kg, po; format: ADME, organism-based; design: time < 24 hr, dose 32 mg/kg, route oral
[9] = Cmax in Sprague-Dawley rat serum at 32 mg/kg, po; format: ADME, organism-based; design: dose 32 mg/kg, route oral
[10] = test system: Mus musculus; test: Toxicity in human DU145 cells xenografted mouse model assessed as body weight at 32 mg/kg, sc administered daily for 6 days; format: organism-based, DU-145; design: dose 32 mg/kg, route subcutaneous; settings: in vivo, 144 h
[11] = Oral bioavailability in Sprague-Dawley rat at 32 mg/kg; format: ADME, organism-based; settings: in vivo
[12] = biological target: T2, Alpha-ketoglutarate-dependent dioxygenase alkB homolog 3 (Homo sapiens) (UniProt Q96Q83); test: Inhibition of demethylase activity of PCA-1 (unknown origin) using 3-methyl cytosine oligo DNA as […] after 1 hr by RT-PCR analysis
T2 sequence (whole entry): T1 sequence (Q96Q83 whole entry)

[13] = biological target: T2, Alpha-ketoglutarate-dependent dioxygenase alkB homolog 3 (Homo sapiens); settings: 10 uM
Description: Inhibition of PCA-1 (unknown origin) at 10 uM

[14] = Drug level in Sprague-Dawley rat serum at 32 mg/kg, po after 1 hr; format: ADME, organism-based; design: dose 32 mg/kg, route oral
[15] = test system: DU-145; test: Anticancer activity against human DU145 cells xenografted in mouse assessed as tumor growth inhibition at 32 mg/kg, sc administered daily for 6 days; format: functional, organism-based; design: dose 32 mg/kg
[16] = test system: Mus musculus; test: Toxicity in human DU145 cells xenografted mouse model assessed as abnormality in organs at 32 mg/kg, sc administered daily for 6 days; format: organism-based, DU-145; design: dose 32 mg/kg, route subcutaneous; settings: in vivo, 144 h
[17] = test system: Mus musculus; test: Toxicity in human DU145 cells xenografted mouse model assessed as abnormal behavior at 32 mg/kg, sc administered daily for 6 days; format: organism-based, DU-145; design: dose 32 mg/kg, route subcutaneous; settings: in vivo, 144 h

IC50 [2]: 1.7 µM
SMILES: Cc1[nH]n(-c2ccccn2)c(=O)c1C(=O)Nc1ccccc1
inhibition at 10 µM [1]: 25%

IC50 [2]: 5.9 µM
SMILES: Cc1[nH]n(-c2nc3c(C)cccc3[nH]2)c(=O)c1Cc1ccccc1

IC50 [2]: 1.5 µM
SMILES: Cc1[nH]n(-c2nc3cc(-c4ccc(Cl)cc4)ccc3[nH]2)c(=O)c1Cc1ccccc1
inhibition at 1 µM [3]: 91%
inhibition at 10 µM [4]: 100%
inhibition at 1 µM [5]: 70%
inhibition at 10 µM [1]: 63%

IC50 [2]: 7.2 µM
SMILES: O=c1cc(-c2ccccc2)[nH]n1-c1nc2ccccc2[nH]1

inhibition [12]: 20%
IC50 [2]: > 10 µM
SMILES: Cc1[nH]n(-c2ccccc2)c(=O)c1C

IC50 [2]: > 10 µM
SMILES: Cc1[nH]n(-c2nc3c(C)cccc3[nH]2)c(=O)c1C

IC50 [2]: 4 µM
inhibition [13]: 76%
SMILES: Cc1[nH]n(-c2nc3ccccc3[nH]2)c(=O)c1C
inhibition at 10 µM [1]: 0.8%

IC50 [2]: 0.75 µM
SMILES: Cc1[nH]n(-c2nc3ccccc3[nH]2)c(=O)c1Cc1ccc2ccccc2c1

IC50 [2]: 0.64 µM
SMILES: Cc1[nH]n(-c2nc3ccc(C(C)(C)C)cc3[nH]2)c(=O)c1Cc1ccccc1

IC50 [2]: 0.55 µM
SMILES: Cc1[nH]n(-c2nc3ccccc3[nH]2)c(=O)c1Cc1ccc(C(F)(F)F)cc1

IC50 [2]: 0.48 µM
SMILES: Cc1nn(-c2nc3ccccc3[nH]2)c(O)c1Cc1ccccc1
inhibition at 1 µM [3]: 42%
inhibition at 10 µM [4]: 90%
inhibition at 1 µM [5]: 42%
inhibition at 10 µM [1]: 47%

IC50 [2]: 0.72 µM
SMILES: Cc1[nH]n(-c2nc3ccccc3[nH]2)c(=O)c1Cc1ccc(-c2ccccc2)cc1

IC50 [2]: > 10 µM
SMILES: Cc1ccc2nc(-n3[nH]c(C)c(Cc4ccccc4)c3=O)[nH]c2c1C

IC50 [2]: > 10 µM
SMILES: Cc1c(-c2ccccc2)[nH]n(-c2nc3ccccc3[nH]2)c1=O

IC50 [2]: 4.1 µM
SMILES: Cc1[nH]n(-c2nc3ccccc3[nH]2)c(=O)c1Cc1ccc(C(C)(C)C)cc1

IC50 [2]: 2.1 µM
SMILES: Cc1ccc(-c2ccc3[nH]c(-n4[nH]c(C)c(Cc5ccccc5)c4=O)nc3c2)cc1

IC50 [2]: 0.75 µM
SMILES: Cc1ccc2[nH]c(-n3[nH]c(C)c(Cc4ccc(Cl)cc4)c3=O)nc2c1
inhibition at 1 µM [3]: 2.8%
inhibition at 10 µM [4]: 90%
inhibition at 1 µM [5]: -1%
inhibition at 10 µM [1]: 46%

IC50 [2]: 3.7 µM
SMILES: Cc1ccc2[nH]c(-n3[nH]c(C)c(Cc4ccc(C(C)(C)C)cc4)c3=O)nc2c1

IC50 [2]: 0.6 µM
SMILES: Cc1[nH]n(-c2nc3ccccc3[nH]2)c(=O)c1Cc1ccc(F)cc1

IC50 [2]: 0.68 µM
SMILES: COc1ccc(Cc2c(C)[nH]n(-c3nc4ccc(C)cc4[nH]3)c2=O)cc1

IC50 [2]: 15 µM
SMILES: Cc1[nH]n(-c2nc3ccccc3[nH]2)c(=O)c1CC(=O)O

inhibition [12]: 0%
IC50 [2]: > 10 µM
SMILES: Cc1[nH]n(-c2nc3ccccc3o2)c(=O)c1C

IC50 [2]: 0.81 µM
SMILES: Cc1[nH]n(-c2nc3cc(-c4ccccc4)ccc3[nH]2)c(=O)c1Cc1ccccc1

IC50 [2]: 0.63 µM
SMILES: COc1ccc(Cc2c(C)[nH]n(-c3nc4ccccc4[nH]3)c2=O)cc1
Activity [16]: Non-toxic
Activity [17]: Non-toxic

IC50 [2]: > 10 µM
SMILES: Cc1[nH]n(-c2nc3ccccc3[nH]2)c(=O)c1Cc1ccccc1Cl

inhibition [12]: -4%
IC50 [2]: > 10 µM
SMILES: Cc1[nH]n(-c2ccccn2)c(=O)c1C

Further lines, the compound ahead of its results:

SMILES: Cc1[nH]n(-c2nc3ccccc3[nH]2)c(=O)c1Cc1cccc(Cl)c1
IC50 [2]: 0.54 µM

SMILES: Cc1ccc2nc(-n3[nH]c(C)c(Cc4ccccc4)c3=O)[nH]c2c1
C0 [6]: 430 ng/mL
AUC(0-t) at 24 h [7]: 150 ng·h/mL
AUC(0-t) at 24 h [8]: 690 ng·h/mL
Cmax [9]: 350 ng/mL
Activity [10]: Non-toxic
bioavailability [11]: 7.2%
IC50 [2]: 0.67 µM

SMILES: COC(=O)Cc1c(C)[nH]n(-c2nc3ccccc3[nH]2)c1=O
IC50 [2]: 4.3 µM

SMILES: Cc1ccc2[nH]c(-n3nc(-c4ccccc4)c(-c4ccccc4)c3O)nc2c1
IC50 [2]: 5.8 µM

SMILES: Cc1[nH]n(-c2nc3ccccc3s2)c(=O)c1C
inhibition [12]: -3%
IC50 [2]: > 10 µM

SMILES: Cc1cc(O)n(-c2nc3ccccc3[nH]2)n1
IC50 [2]: 3.6 µM

SMILES: Cc1[nH]n(-c2nc3ccccc3[nH]2)c(=O)c1Cc1ccc(Cl)c(Cl)c1
IC50 [2]: 3.1 µM

SMILES: Cc1ccc2[nH]c(-n3[nH]c(-c4ccccc4)c(C)c3=O)nc2c1
IC50 [2]: 3.3 µM

SMILES: Cc1[nH]n(-c2nc3cc(Br)ccc3[nH]2)c(=O)c1Cc1ccccc1
IC50 [2]: 0.49 µM

SMILES: Cc1ccc2[nH]c(-n3[nH]c(C)c(C)c3=O)nc2c1
concentration at 1 h [14]: 1080 ng/mL
inhibition at 1 µM [3]: 3.8%
inhibition at 10 µM [4]: 69%
inhibition at 1 µM [5]: -11%
inhibition at 10 µM [1]: 19%
IC50 [2]: 2.6 µM

SMILES: Cc1[nH]n(-c2nc3ccccc3[nH]2)c(=O)c1Cc1ccc(Cl)cc1Cl
inhibition [12]: 11%
IC50 [2]: > 10 µM

SMILES: Cc1[nH]n(-c2ncccn2)c(=O)c1C
inhibition [12]: -4%
IC50 [2]: > 10 µM

SMILES: Cc1ccc2[nH]c(-n3[nH]c(C)c(Cc4ccc(F)cc4)c3=O)nc2c1
IC50 [2]: 0.78 µM

SMILES: Oc1c(-c2ccccc2)c(-c2ccccc2)nn1-c1nc2cc(Cl)ccc2[nH]1
IC50 [2]: 2 µM

SMILES: Cc1ccc2[nH]c(-n3[nH]c(C)c(Cc4ccccc4)c3=O)nc2c1
TGI [15]: Active
inhibition at 1 µM [3]: 34%
inhibition at 10 µM [4]: 81%
inhibition at 1 µM [5]: 35%
inhibition at 10 µM [1]: 54%

SMILES: Cc1ccc2nc(-n3[nH]c(C)c(Cc4ccc(C(F)(F)F)cc4)c3=O)[nH]c2c1
IC50 [2]: 0.57 µM

SMILES: Cc1[nH]n(-c2nc3ccccc3[nH]2)c(=O)c1Cc1ccc(Cl)cc1
inhibition [12]: 46%
IC50 [2]: > 10 µM

SMILES: Cc1[nH]n(-c2nc3cc(C(F)(F)F)ccc3[nH]2)c(=O)c1Cc1ccccc1
inhibition at 1 µM [3]: 90%
inhibition at 10 µM [4]: 92%
inhibition at 1 µM [5]: 78%
inhibition at 10 µM [1]: 84%
IC50 [2]: 0.61 µM

SMILES: Cc1ccc2[nH]c(-n3[nH]c(C)c(Cc4ccc(Cl)c(Cl)c4)c3=O)nc2c1
IC50 [2]: 0.72 µM

SMILES: Cc1[nH]n(-c2nc3cc(Cl)ccc3[nH]2)c(=O)c1Cc1ccccc1
inhibition at 1 µM [3]: 84%
inhibition at 10 µM [4]: 87%
inhibition at 1 µM [5]: 86%
IC50 [2]: 4.5 µM

SMILES: Cc1ccc2[nH]c(-n3[nH]c(C)c(Cc4ccccc4Cl)c3=O)nc2c1
IC50 [2]: 0.91 µM

SMILES: Cc1ccc2nc(-n3[nH]c(C)c(Cc4ccc(-c5ccccc5)cc4)c3=O)[nH]c2c1
IC50 [2]: 5.3 µM

SMILES: Cc1[nH]n(-c2nc3ccccc3n2C)c(=O)c1C
inhibition [12]: 21%
IC50 [2]: > 10 µM

SMILES: O=c1c(Cc2ccccc2)c(-c2ccccc2)[nH]n1-c1nc2ccccc2[nH]1
inhibition [12]: 2%
IC50 [2]: > 10 µM

Source: ChEMBL document CHEMBL3112445, “Design and synthesis of prostate cancer antigen-1 (PCA-1/ALKBH3) inhibitors as anti-prostate cancer drugs” (Bioorg Med Chem Lett, 2014)
